Source: ChEMBL document CHEMBL1201862, “PubChem BioAssay data set” (2004)
Activity calls are given as the source filed them. Rule as the data show it: actives have a measured IC50 and inactives only a lower limit.

Molecular target: Envelope glycoprotein gp160 (Human immunodeficiency virus 1, UniProt Q6QLK5)
Experiment: inhibitors of HIV fusion peptide binding, primary screen, biochemical, uHTS, fluorescence dequenching (AID 1986)

Chain of Envelope glycoprotein gp160 (Q6QLK5 whole entry, the tested form may be a part): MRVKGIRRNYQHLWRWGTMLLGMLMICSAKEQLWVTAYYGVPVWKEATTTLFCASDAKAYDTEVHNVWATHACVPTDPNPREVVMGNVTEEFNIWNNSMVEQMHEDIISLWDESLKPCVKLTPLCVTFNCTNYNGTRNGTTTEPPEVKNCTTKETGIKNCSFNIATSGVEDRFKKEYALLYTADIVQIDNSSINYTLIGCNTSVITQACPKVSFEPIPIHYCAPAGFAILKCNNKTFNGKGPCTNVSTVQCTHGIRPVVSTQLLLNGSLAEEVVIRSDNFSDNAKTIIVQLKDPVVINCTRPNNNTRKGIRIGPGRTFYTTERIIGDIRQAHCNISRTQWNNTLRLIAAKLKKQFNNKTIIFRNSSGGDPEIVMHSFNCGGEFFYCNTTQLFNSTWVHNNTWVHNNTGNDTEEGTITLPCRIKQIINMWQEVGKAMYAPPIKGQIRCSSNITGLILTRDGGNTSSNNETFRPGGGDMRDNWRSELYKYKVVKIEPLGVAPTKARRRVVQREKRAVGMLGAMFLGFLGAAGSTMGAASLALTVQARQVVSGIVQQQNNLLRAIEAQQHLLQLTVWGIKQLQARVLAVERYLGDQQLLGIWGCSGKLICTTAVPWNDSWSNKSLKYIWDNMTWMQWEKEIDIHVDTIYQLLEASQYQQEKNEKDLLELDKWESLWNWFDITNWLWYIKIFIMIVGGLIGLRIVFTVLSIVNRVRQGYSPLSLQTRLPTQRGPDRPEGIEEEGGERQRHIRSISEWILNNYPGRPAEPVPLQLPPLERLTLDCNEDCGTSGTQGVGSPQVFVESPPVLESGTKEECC

Row | Structure (SMILES) | IC50
1 | Cc1ccc2nc(N3C(=O)C(O)=C(C(=O)c4ccco4)C3c3cccc(O)c3)sc2c1 (stereo not drawn) | 16.9 µM (active)
2 | CC1(C)CC(=O)C2=C(C1)c1c(ccc3ccccc13)NC2c1cc([N+](=O)[O-])cc([N+](=O)[O-])c1O (stereo not drawn) | 9.83 µM (active)
3 | CC(C)COc1ccc(-c2nn(-c3ccccc3)cc2/C=C2/SC(=S)N(CC(=O)O)C2=O)cc1 | 8.09 µM (active)
